Measured values reported in patent US12358963B2, “Regenerative polypeptides and uses thereof” (Juvena Therapeutics, Inc., priority 2019, dated 2025).

Tests used:
Type in all cases: cell-based
DM1 human myoblast [1] = assay: DM1 human myoblast fusion (% eMyHC area); conditions: 96h; vehicle 0.45
Procedure: (§1) Bar graph of % EdU+ human myoblast (person) and % area MyHC in response to IGF2. Myoblast were cultured 72h for proliferation and 96h for fusion in the presence of indicated factor. Mean∓S.D. Mean∓SD. Significant p-values (EdU: Vehicle˜IGF2: 6.8E-3, % eMyHC Area: Vehicle˜IGF2: 1.9E-4) (*p<0.05 by Students Two-Tailed T-test, n=3-6).
(§2) IGF2 was tested individually for its ability to promote proliferation and/or fusion of human muscle progenitor cells from an individual with myotonic dystrophy type 1 (hMD)—a muscular dystrophy caused by mutations in the DMPK1 gene. The effect of IGF2 on myogenic activity was assayed in biological triplicate across a range of concentrations centered around expected physiological levels by adding each factor to hMD myoblasts for 72 hours with daily media changes (DMEM +2% horse serum) and a second pulse of factors at the first media change. After 72 or 96 hours, cells were pulsed for 2-5 hours with EdU (30 uM), ethanol fixed, stained with Hoescht 3342, immunostained for proliferation—as measured by the percent of cells staining positive for EdU (% EdU)—, and immunostained for differentiation—as measured by the increase in cellular area staining positive for embryonic myosin heavy chain (% eMyHC) relative to the negative controls, which received media and vehicle only. […]

human myoblast cells = assay: Human myoblast differentiation, % area eMyHC (IGF2, sodium butyrate); conditions: 96h, vehicle 6.813
Procedure: Fresh media was added every 24 hours. […] The total area of eMyHc positive cells was analyzed, and treated cells were compared to cells treated with the vehicle alone. […] Myoblast were cultured 96h in the presence of BMP7 at indicated dose. Fresh media and BMP7 was added every 24h. Mean∓S.D. (*p<0.05 by One-Way Anova Tukey Honest Significant Difference, n=2-12) […] Fresh media was added every 24 hours. […] FIG. 3A: Bar graph of % Area eMyHC+ age human myoblast (person) in response to indicated treatment compared to Vehicle (vehicle). Myoblast were cultured 96h in the presence of factors at indicated dose. Fresh media and factors were added every 24h. Mean∓S.D. Significant p-values (Vehicle IGF2: 0.03 ug/mL: 1.42E-08, Vehicle NaBut: 1 nM IGF2: 0.03 ug/mL: 1.79E-11, Vehicle NaBut: 10 nM IGF2: 0.03 ug/mL: 1.80E-11, Vehicle NaBut: 100 nM IGF2: 0.03 ug/mL: 1.79E-11). […] Myoblast were cultured 96h in the presence of BMP7 at indicated dose. Mean±S.D. Significant p-values (IGF2 NaBut: 1 nM IGF2: 0.03 ug/mL: 1.88E-3, Vehicle NaBut: 10 nM IGF2: 0.03 ug/mL: 4.80E-3, Vehicle NaBut: 100 nM IGF2: 0.03 ug/mL: 1.87E-3) (*p<0.05 by One-Way ANOVA Tukey Honest Significant Difference, n=2-12)

DM1 human myoblast [2] = assay: DM1 human myoblast proliferation (EdU); conditions: 72h; vehicle 1.0
Procedure: as §1, §2

DM1 human myoblast [3] = assay: Gene expression fold change in DM1 human myoblast; conditions: IGF2 200 ng/mL
[4] = system: aged human myoblast cell lines; assay: Myogenic gene RNA expression in aged human myoblasts by real-time qPCR
Procedure: Myogenic gene RNA expression (fold change to FM) in response to vehicle (FM) in mouse myoblast cell lines monitored by real-time qPCR. Myoblast were cultured 48h in fusion media. Mean±SD. n=3. (Y,Z) Differential induction of myogenic gene expression by FGF17 in human myoblast myoblasts. Quantitation table of myogenic gene RNA expression (fold change to FM-fusion media (DMEM+2% horse serum)) in response to FM or rh-FGF17 in aged human myoblast cell lines by real-time qPCR. Myoblast were cultured (B) 48 hours or (C) 72 hours in FM. Mean∓SD. n=3.
RNA was isolated from each well (RNeasy Mini Kit, Qiagen) and cDNA was obtained by reverse-transcription (High Capacity Reverse Transcription Kit, Thermo Fisher Scientific). Real-time quantitative PCR was performed using QuantStudio3 (Thermo Fisher).
Aged human myoblasts were cultured in well plates. […] Cells that had been cultured with IGF2 had increases in levels of MYOG at 48 hours and levels of MYOD at 72 hours.

[5] = 48h, BMP7 50 ng/mL, Butyrate 100 nM, FM 1.000

Substance: IGF2: IGF2 polypeptide, IGF1R agonist
- % eMyHC are (DM1 human myoblast [1]): 5.49%
- % eMyHC (human myoblast cells; IGF2 0.015 ug/mL): 10.843%
- % eMyHC (human myoblast cells; IGF2 0.03 ug/mL, aged human myoblast): 16.620%
- EdU FC (DM1 human myoblast [2]): 2.18
- ATP1B1 expression fold change compared to FM (vehicle) (DM1 human myoblast [3]; 48h): 3.018
- MYF5 expression fold change compared to FM (DM1 human myoblast [3]; [5]): 0.730
- MYOD1 expression fold change compared to FM (DM1 human myoblast [3]; [5]): 1.252
- MYOG expression fold change compared to FM (DM1 human myoblast [3]; [5]): 2.972
- CKM expression fold change compared to vehicle (DM1 human myoblast [3]; 96h): 5.165
- MYH3 expression fold change compared to vehicle (DM1 human myoblast [3]; 96h): 14.833
- MYOD1 RNA expression (fold change to FM) ([4]; 48 hr, FM 1.001): 0.519
- MYOG RNA expression (fold change to FM) ([4]; 48 hr, FM 1.013): 5.756
- MYF5 RNA expression (fold change to FM) ([4]; 48 hr, FM 1.04): 0.409
- MYF5 RNA expression (fold change to FM) ([4]; 72 hr, FM 1.023): 0.708
- MYOD1 RNA expression (fold change to FM) ([4]; 72 hr, FM 1.055): 5.723
- MYOG RNA expression (fold change to FM) ([4]; 72 hr, FM 1.092): 0.018
